Earlier results in patent US8791127B2, “Mucosal bioadhesive slow release carrier for delivering active principles” (BioAlliance Pharma, priority 2006, dated 2014).
Values after ≈ are worked out from the molar mass of the structure shown.

System: HSV-1 virus
Conditions: towards HSV-1 virus

For `Nc1nc2c(ncn2COCCO)c(=O)[nH]1` [acyclovir], the “minimal inhibitory concentration (MIC)” value is listed as 0.0225 µg/mL (≈ 0.0999 µM).
